In publication PMC3298469, “A selective and potent CXCR3 antagonist SCH 546738 attenuates the development of autoimmune diseases and delays graft rejection” (BMC Immunology, 2012):
Read-outs that look alike come from different tables or passages of the source.

Experiments:
[1] = biological target: T1, CXCR3 (Homo sapiens, UniProt P49682); assay: [125I]hCXCL10 competition binding (SPA, Ba/F3 membranes); parameters: expressed in transfected cells; host or cells: mouse pro-B Ba/F3 cells (vector pME18Sneo), membrane preparation
T1 sequence (P49682 1-368): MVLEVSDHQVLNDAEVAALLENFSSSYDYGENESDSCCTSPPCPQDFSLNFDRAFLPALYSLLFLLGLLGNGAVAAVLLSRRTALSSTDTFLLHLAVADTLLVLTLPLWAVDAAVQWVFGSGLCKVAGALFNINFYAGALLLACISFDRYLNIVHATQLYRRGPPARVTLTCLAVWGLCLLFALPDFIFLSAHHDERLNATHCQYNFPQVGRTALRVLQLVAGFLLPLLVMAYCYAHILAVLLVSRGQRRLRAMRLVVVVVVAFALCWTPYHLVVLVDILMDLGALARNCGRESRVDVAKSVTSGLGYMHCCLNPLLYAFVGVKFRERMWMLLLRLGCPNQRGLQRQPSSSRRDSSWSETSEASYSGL
Procedure: The cDNAs encoding human, mouse and rat CXCR3 were generated based on the published sequences: human (NM_001504), mouse (NM_009910), rat (NM_053415). The cDNAs for monkey and dog CXCR3 were cloned in the lab. All CXCR3 cDNAs were cloned into the mammalian expression vector pME18Sneo, a derivative of the SRα expression vector as described previously. IL-3-dependent mouse pro-B cells Ba/F3 were transfected to express CXCR3 of different species and cell membranes were prepared as described previously.
A scintillation proximity assay was used for radioligand competition binding assays as described previously with some modifications. For each assay point, 1 µg of membrane was preincubated for 1 hr with 300 µg wheat germ agglutinin (WGA) coated SPA beads (GE Healthcare Life Sciences) in the binding buffer (50 mM HEPES, 1 mM CaCl2, 5 mM MgCl2, 125 mM NaCl, 0.002% NaN3, 1.0% BSA) at room temperature. The beads were spun down, resuspended in the binding buffer and transferred to a 96-well Isoplate (Wallac, Gaithersburg, MD). The indicated concentrations of ^125I-hCXCL10, ^125I-hCXCL11 or ^35S-SCH 535390 with a series of titrations of SCH 546738 were added to start the reaction. After indicated reaction times at room temperature, the amount of radioactivity bound to the SPA beads was determined with a Wallac 1450 Microbeta counter (Wallac).
The ability of SCH 546738 to compete the binding of [^125I]hCXCL10 and [^125I]hCXCL11 to human CXCR3 receptor was determined using various concentrations of [^125I]hCXCL10 and [^125I]hCXCL11 as described in Methods. After 3 hr reaction, specific counts relative to input counts (B/B0) in the presence of increasing concentrations of SCH 546738 are plotted.

[2] = plasma pharmacokinetics after oral dosing in C57BL/6 mouse; type: in vivo; settings: 30 mg/kg, 30 mpk oral in 0.4% methylcellulose, n = 3, read-out: AUC (0-24 hr)
Procedure: (§1) SCH 546738 was tested at concentrations of 1-10 μM against a panel of 49 GPCR binding assays. Most of the assays were not affected by SCH 546738 (Table 2). […] In addition, SCH 546738 has a favourable pharmacokinetic profile in rodents. […] Therefore, SCH 546738 is suitable for in vivo preclinical studies.
Figure 4 Plasma concentration versus time profiles of SCH 546738 in Lewis rat and C57BL/6 mouse. SCH 546738 in 0.4% methylcellulose was administered orally at 10 mg/kg (mpk) in Lewis rats or 30 mpk in C57BL/6 mice. The plasma concentration of SCH 546738 in the blood was calculated as the mean of 3 animals (n = 3) at indicated time points post-dose. Their AUC from 0 to 24 hr is also calculated and indicated.

[3] = test system: C57BL/6 mice; assay: mouse experimental autoimmune encephalomyelitis (MOG35-55); type: in vivo
Procedure: Female C57BL/6 mice were purchased from Jackson Laboratory (Bar Harbor, ME). For immunization, 150 μg MOG35-55 peptide prepared by Princeton Biomolecules (Langhorne, PA, USA) and 300 μg killed Mycobacterium tuberculosis (Difco, Detroit, MI) were mixed in CFA (Sigma-Aldrich, St Louis, MO, USA) and injected s.c. in two 50-μl injections over the flanks on day 1. Also, 200 ng of pertussis toxin (Sigma-Aldrich, St Louis, MO) was injected i.v. on days 0 and 2. The compound was administered orally twice daily. Dosing with the compound started at day 0, 24 h prior to MOG35-55 immunization (day 1). Mice were monitored daily and assessed for clinical signs of disease in a blinded fashion according to the following criteria: 0, no signs of disease; 1, tail paralysis; 2, limp tail and hind limb weakness; 3, hind limb paralysis; 4, hind limb plus forelimb paralysis; and 5, moribund or dead. Cumulative clinical scores were calculated by adding daily scores from the day of immunization until the end of the experiment. Mean clinical scores at separate days and mean maximal scores were calculated by adding the scores of individual mice and dividing with the number of mice in each group, including mice not developing signs of EAE. […]

[4] = biological target: Muscarinic M1 (Homo sapiens, UniProt P11229); assay: GPCR counterscreen binding assay
Procedure: as §1

[5] = biological target: Muscarinic M2 (Homo sapiens, UniProt P08172); assay: GPCR counterscreen binding assay
Procedure: as §1

[6] = biological target: CCR1 (Homo sapiens, UniProt P32246); assay: GPCR counterscreen binding assay
Procedure: as §1

[7] = biological target: Vasopressin (oxytocin) (Homo sapiens, UniProt P30559); assay: GPCR counterscreen binding assay
Procedure: as §1

[8] = biological target: Neuropeptide Y (Y1) (Homo sapiens, UniProt P25929); assay: GPCR counterscreen binding assay
Procedure: as §1

[9] = biological target: Vasopressin (V2) (Homo sapiens, UniProt P30518); assay: GPCR counterscreen binding assay
Procedure: as §1

[10] = biological target: CXCR2 (Homo sapiens, UniProt P25025); assay: GPCR counterscreen binding assay
Procedure: as §1

[11] = biological target: Histamine H3 (Homo sapiens, UniProt Q9Y5N1); assay: GPCR counterscreen binding assay
Procedure: as §1

[12] = biological target: Vasopressin (V1b) (Homo sapiens, UniProt P47901); assay: GPCR counterscreen binding assay
Procedure: as §1

[13] = biological target: CCR2 (Homo sapiens, UniProt P41597); assay: GPCR counterscreen binding assay
Procedure: as §1

[14] = test system: VR1N; assay: GPCR counterscreen binding assay; settings: @ 4 μM
Procedure: as §1

[15] = biological target: Histamine H1 (Homo sapiens, UniProt P35367); assay: GPCR counterscreen binding assay
Procedure: as §1

[16] = biological target: Prokineticin PKR1 (Homo sapiens, UniProt Q8TCW9); assay: GPCR counterscreen binding assay
Procedure: as §1

[17] = biological target: Neurokinin NK3 (Homo sapiens, UniProt P29371); assay: GPCR counterscreen binding assay
Procedure: as §1

[18] = biological target: Dopamine D1 (Homo sapiens, UniProt P21728); assay: GPCR counterscreen binding assay
Procedure: as §1

[19] = biological target: T1, CXCR3; assay: human activated T cell chemotaxis induced by CXCL9, CXCL10, CXCL11; type: cell-based; parameters: endogenous in cells
Procedure: The preparation of human activated T cells was performed as described previously [39]. Human peripheral blood lymphocytes were prepared by Ficoll-Hypaque centrifugation, depleted of monocytes, and stimulated for 2 days with 1 µg/ml PHA (Murex Diagnostics, Dartford, U.K.) and 100 U/ml IL-2 (Sigma, St. Louis, MO) in RPMI 1640 supplemented with 10% fetal bovine serum (FBS), 2 mM L-glutamine, 100 µg/ml streptomycin, 100 U/ml penecillin, 1% non-essential amino acids and 2 mM HEPES. Following stimulation, peripheral blood lymphocytes were cultured in above media containing 5% conditioned media (Sigma) for up to 15 days.
Human activated T cell chemotaxis assays were performed using 96-well ChemoTx® microplates (Neuro Probe, Inc., Gaithersburg, MD) with a 3 µm filter as per manufacturers' instructions. Activated T cells were washed with RPMI medium twice, and then resuspended in the medium containing 20% FBS. 1.25 × 10^5 cells/reaction were mixed with indicated concentrations of the compound and placed on the filter. The compound and chemokines were mixed and placed in the bottom well of the ChemoTx system. […] The number of migrated cells was measured using the Cell Titer Glo Luminescent Assay from Promega (Madison, WI) as per vendor's instructions. Chemotaxis is expressed as a chemotactic index, which is a ratio versus the one without chemokines (spontaneous migration). […]

Sequence of Neuropeptide Y (Y1) (P25929 whole entry): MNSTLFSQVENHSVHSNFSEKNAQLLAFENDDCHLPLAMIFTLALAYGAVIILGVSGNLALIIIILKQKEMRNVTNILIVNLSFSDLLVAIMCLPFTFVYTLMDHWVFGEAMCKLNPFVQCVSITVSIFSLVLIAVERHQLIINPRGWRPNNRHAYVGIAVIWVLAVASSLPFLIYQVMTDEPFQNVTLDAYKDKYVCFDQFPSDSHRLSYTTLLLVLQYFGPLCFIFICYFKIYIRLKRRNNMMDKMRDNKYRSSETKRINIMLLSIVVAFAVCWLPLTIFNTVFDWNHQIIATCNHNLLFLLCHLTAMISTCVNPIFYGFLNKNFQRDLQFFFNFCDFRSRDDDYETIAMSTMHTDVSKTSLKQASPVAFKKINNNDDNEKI
Sequence of Prokineticin PKR1 (Q8TCW9 whole entry): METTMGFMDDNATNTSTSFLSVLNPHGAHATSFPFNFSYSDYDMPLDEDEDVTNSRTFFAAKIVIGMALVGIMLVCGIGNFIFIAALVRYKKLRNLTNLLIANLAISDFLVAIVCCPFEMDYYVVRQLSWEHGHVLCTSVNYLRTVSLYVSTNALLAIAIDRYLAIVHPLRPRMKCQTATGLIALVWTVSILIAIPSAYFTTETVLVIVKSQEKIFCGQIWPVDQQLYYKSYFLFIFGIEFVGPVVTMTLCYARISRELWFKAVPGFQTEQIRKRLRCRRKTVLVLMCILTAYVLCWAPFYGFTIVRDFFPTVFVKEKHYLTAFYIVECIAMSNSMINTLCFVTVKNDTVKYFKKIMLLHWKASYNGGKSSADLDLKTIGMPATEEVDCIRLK
Sequence of CXCR2 (P25025 whole entry): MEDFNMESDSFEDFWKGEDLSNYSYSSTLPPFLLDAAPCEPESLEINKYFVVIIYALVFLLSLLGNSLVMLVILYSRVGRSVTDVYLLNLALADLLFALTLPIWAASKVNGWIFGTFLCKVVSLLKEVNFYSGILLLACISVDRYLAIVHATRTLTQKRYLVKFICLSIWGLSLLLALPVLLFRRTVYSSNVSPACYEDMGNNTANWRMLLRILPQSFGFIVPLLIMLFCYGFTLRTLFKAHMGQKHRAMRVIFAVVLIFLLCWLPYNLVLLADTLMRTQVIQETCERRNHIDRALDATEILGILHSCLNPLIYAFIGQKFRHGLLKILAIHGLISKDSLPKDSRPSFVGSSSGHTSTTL
Sequence of Vasopressin (V1b) (P47901 whole entry): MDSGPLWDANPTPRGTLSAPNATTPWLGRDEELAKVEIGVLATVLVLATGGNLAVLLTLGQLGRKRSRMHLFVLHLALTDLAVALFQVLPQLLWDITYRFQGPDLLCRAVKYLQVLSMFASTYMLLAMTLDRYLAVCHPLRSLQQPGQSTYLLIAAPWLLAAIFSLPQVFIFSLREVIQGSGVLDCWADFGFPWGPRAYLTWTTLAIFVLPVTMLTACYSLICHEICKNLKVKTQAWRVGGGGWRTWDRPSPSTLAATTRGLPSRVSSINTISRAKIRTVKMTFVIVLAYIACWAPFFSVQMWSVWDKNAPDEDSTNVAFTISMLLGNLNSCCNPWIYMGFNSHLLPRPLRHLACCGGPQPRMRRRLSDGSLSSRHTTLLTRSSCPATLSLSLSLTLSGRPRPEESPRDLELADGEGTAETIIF
Sequence of Vasopressin (V2) (P30518 whole entry): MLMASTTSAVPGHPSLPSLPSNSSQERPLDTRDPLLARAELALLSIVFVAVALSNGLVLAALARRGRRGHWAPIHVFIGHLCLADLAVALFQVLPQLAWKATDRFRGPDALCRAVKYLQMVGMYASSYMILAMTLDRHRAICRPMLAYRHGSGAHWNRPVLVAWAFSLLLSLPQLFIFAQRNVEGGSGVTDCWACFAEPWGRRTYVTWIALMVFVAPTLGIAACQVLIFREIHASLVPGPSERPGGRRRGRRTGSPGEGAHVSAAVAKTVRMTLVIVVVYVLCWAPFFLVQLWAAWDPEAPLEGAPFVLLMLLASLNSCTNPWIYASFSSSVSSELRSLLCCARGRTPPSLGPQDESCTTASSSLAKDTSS
Sequence of Dopamine D1 (P21728 whole entry): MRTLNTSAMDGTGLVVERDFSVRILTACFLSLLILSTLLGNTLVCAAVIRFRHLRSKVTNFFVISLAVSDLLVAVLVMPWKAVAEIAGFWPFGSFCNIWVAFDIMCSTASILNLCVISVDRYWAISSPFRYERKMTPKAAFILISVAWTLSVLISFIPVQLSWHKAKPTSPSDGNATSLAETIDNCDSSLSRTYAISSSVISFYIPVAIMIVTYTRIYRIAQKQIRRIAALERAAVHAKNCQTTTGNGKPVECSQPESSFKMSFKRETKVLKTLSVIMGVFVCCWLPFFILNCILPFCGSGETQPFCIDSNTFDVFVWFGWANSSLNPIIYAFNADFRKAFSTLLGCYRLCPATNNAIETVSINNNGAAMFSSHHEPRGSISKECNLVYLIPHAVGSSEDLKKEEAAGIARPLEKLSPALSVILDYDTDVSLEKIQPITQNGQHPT
Sequence of Muscarinic M1 (P11229 whole entry): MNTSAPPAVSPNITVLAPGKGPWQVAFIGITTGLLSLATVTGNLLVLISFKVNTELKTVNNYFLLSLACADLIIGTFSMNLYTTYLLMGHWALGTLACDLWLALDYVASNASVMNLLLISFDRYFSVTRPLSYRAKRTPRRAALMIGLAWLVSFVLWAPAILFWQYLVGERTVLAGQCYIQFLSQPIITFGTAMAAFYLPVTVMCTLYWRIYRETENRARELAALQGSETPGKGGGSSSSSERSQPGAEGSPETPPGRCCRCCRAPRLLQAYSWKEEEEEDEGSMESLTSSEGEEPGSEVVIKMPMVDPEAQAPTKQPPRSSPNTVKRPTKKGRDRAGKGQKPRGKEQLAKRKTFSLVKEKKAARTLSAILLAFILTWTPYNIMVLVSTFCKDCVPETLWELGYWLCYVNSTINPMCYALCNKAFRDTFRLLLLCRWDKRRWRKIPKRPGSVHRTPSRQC
Sequence of Muscarinic M2 (P08172 whole entry): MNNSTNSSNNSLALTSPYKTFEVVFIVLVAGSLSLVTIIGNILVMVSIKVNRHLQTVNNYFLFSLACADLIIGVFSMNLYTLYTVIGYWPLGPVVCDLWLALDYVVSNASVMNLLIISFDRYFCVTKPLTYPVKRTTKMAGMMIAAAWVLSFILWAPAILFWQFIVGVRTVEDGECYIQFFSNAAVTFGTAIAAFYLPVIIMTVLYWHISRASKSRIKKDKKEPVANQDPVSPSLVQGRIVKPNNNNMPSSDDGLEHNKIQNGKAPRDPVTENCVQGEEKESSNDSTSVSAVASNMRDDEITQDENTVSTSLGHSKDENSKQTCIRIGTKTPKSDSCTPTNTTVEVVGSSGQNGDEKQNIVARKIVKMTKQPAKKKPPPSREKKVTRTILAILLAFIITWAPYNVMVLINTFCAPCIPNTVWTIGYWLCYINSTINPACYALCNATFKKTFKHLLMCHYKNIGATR
Sequence of Histamine H3 (Q9Y5N1 whole entry): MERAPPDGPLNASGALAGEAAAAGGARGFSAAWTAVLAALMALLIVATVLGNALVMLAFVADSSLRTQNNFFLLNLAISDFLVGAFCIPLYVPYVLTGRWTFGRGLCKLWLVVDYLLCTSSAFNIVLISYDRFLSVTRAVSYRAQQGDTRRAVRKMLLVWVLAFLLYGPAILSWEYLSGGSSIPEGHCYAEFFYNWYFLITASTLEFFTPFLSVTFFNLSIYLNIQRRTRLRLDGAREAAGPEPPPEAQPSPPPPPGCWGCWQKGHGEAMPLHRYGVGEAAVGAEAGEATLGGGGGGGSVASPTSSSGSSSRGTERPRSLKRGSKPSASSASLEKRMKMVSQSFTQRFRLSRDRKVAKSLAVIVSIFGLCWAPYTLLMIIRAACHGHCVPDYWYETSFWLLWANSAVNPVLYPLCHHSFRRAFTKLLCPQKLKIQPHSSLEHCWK
Sequence of CCR2 (P41597 whole entry): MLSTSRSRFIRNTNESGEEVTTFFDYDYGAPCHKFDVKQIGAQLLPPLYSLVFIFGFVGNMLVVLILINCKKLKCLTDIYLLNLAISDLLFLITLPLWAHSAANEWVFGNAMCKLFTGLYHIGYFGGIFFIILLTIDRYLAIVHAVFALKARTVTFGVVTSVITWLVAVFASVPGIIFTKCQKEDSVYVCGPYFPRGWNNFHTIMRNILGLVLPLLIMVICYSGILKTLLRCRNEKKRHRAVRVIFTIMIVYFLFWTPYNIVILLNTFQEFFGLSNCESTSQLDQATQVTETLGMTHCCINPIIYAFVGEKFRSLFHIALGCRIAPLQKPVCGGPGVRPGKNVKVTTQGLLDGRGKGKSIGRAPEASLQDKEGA
Sequence of Neurokinin NK3 (P29371 whole entry): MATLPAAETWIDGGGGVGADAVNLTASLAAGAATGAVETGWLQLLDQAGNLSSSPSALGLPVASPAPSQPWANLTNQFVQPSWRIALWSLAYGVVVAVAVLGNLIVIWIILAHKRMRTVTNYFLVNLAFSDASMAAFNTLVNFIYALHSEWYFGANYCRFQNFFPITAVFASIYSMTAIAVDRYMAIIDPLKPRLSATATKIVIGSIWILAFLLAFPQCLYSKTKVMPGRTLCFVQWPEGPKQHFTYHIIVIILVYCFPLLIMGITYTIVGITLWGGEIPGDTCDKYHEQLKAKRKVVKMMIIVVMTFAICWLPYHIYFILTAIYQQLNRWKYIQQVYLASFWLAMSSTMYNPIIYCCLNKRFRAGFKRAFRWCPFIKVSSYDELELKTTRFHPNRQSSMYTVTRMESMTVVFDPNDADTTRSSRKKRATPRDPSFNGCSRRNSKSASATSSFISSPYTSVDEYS
Sequence of CCR1 (P32246 whole entry): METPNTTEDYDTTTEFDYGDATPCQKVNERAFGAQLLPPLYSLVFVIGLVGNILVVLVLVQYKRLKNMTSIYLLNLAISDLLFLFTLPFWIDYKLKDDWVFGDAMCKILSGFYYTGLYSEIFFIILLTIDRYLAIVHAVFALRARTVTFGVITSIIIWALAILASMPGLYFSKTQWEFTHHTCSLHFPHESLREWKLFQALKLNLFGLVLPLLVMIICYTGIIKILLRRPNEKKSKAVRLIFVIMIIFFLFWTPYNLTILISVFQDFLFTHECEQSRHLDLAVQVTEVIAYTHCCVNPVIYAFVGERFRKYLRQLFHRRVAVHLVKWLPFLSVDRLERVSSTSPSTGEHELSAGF

Q: With CC[C@H]1CN(c2nc(N)c(C(N)=O)nc2Cl)CCN1C1CCN(Cc2ccc(Cl)cc2)CC1 [SCH 546738] as the compound, how does the IC50 ([1]; Human CXCR3, [125I]hCXCL10, read-out: IC50 (nM) (CXCL10)) read?
A: Its IC50 is 0.8 nM.

Q: And the IC50 ([1]; [125I-hIP-10] 100 pM, 3 hr reaction, read-out: IC50)?
A: Its IC50 is 1 nM.

Q: And the IC50 ([1]; [125I-hIP-10] 500 pM, 3 hr reaction, read-out: IC50)?
A: The IC50 was 1.2 nM.

Q: And the IC50 ([1]; [125I]hCXCL10 25-500 pM, read-out: IC50 (constant, independent of input concentration))?
A: Its IC50 is about 1 nM.

Q: And the “mode of antagonism of CXCL10 and CXCL11 binding to CXCR3” value ([1]; both CXCL10 and CXCL11)?
A: The value was “non-competitive antagonist”.

Q: And the IC50 ([1]; range over both radioligands CXCL10 and CXCL11, read-out: IC50 for displacing radiolabeled CXCL10 and CXCL11 from human CXCR3)?
A: Its IC50 is 0.8 to 2.2 nM.

Q: What about the AUC(0-t) [2] of the same compound?
A: The AUC(0-t) was 12.6 µM·h.

Q: And the “effect on disease onset and severity” value ([3]; 30 mpk orally twice daily, alone, days 17 and 19)?
A: The value was “delayed disease onset and attenuated disease severity”.

Q: And the “effect on disease onset and severity, combination treatment” value ([3]; SCH 546738 30 mpk p.o. twice daily combined with IFN-β 1700 ng i.m. daily, compared to either alone)?
A: The value was “significant additive effect”.

Q: And the inhibition at 4 µM [4]?
A: The inhibition at 4 µM was 22%.

Q: What about the inhibition at 4 µM [5] of the same compound?
A: Its inhibition at 4 µM is 52%.

Q: What about the inhibition at 10 µM [6] of the same compound?
A: The inhibition at 10 µM was 9%.

Q: And the inhibition at 4 µM [7]?
A: The inhibition at 4 µM was 12%.

Q: What about the inhibition at 4 µM [8] of the same compound?
A: Its inhibition at 4 µM is 4%.

Q: What about the inhibition at 4 µM [9] of the same compound?
A: Its inhibition at 4 µM is 18%.

Q: What about the inhibition at 10 µM [10] of the same compound?
A: Its inhibition at 10 µM is 20%.

Q: What about the inhibition at 2 µM [11] of the same compound?
A: The inhibition at 2 µM was 29%.

Q: And the inhibition at 4 µM [12]?
A: Its inhibition at 4 µM is 15%.

Q: And the inhibition at 10 µM [13]?
A: The inhibition at 10 µM was 9%.

Q: What about the “Inhibition (%)” value [14] of the same compound?
A: Its value is 0% @ 4 μM.

Q: And the inhibition at 2 µM [15]?
A: The inhibition at 2 µM was 46%.

Q: What about the inhibition at 4 µM [16] of the same compound?
A: The inhibition at 4 µM was -1%.

Q: And the inhibition at 2 µM [17]?
A: Its inhibition at 2 µM is 0%.

Q: What about the inhibition at 4 µM [18] of the same compound?
A: The inhibition at 4 µM was 6%.

Q: And the inhibition at 0.01 µM ([19]; 10 nM compound, CXCL9, CXCL10, CXCL11, 20% FBS, read-out: inhibition of T cell chemotaxis induced by all three CXCR3 ligands)?
A: Its inhibition at 0.01 µM is about 90%.

Q: And the IC90 ([19]; human activated T cells, read-out: IC90 of CXCR3-mediated chemotaxis)?
A: Its IC90 is about 10 nM.
